Assay results: PMC6120190, “Identification of two distinct peptide-binding pockets in the SH3 domain of human mixed-lineage kinase 3” (The Journal of Biological Chemistry, 2018)
No end group written: not given here. *: point of attachment. Biotin = O=C1N[C@H]2[C@H](CS[C@H]2CCCCC(=O)*)N1

What was measured:
GST-MLK1 SH3 [1] = assay: specificity ELISA, MLK1; assay type: binding, human; settings: biotinylated peptide ≈2 μM on NeutrAvidin; GST-SH3 0.15 μM, 1–1.5 h; anti-GST-HRP; triplicate (Fig. 8)
Procedure: (§1) Figure 8. Binding of MIP and NS5A peptides to SH3 domain of other members of MLK subfamily (MLK1–4). To determine whether MIP and NS5A can interact with SH3 domains of MLK1–4 proteins, the purified GST-MLK1–4 SH3 domains were incubated with biotinylated peptides, NS5A peptide ([…]-GGG-K-biotin), MIP ([…]-K-biotin), and MIP-R12A ([…]-K-biotin), immobilized on a NeutrAvidin-coated 96-well ELISA plate. Binding of SH3 domain was detected with anti-GST antibody conjugated to HRP. […] See also Fig. S6.
(§2) Two plasmids, gifts from Dr. Gerardo Morfini, University of Illinois at Chicago, encoding a GST protein fused to either the WT or mutant Y52A of the SH3 domain of MLK3 (UniProt entry Q16584; aa 43–104), respectively, between BamHI and EcoRI sites, were transformed into the Escherichia coli strain Rosetta(DE3)pLysS. DNA fragments encoding the SH3 domain of MLK1 (UniProt entry P80192; aa 52–116), MLK2 (UniProt entry Q02779; aa 16–81), and MLK4 (UniProt entry Q5TCX8; aa 38–102) were commercially prepared as gBlocks® Gene Fragments (Integrated DNA Technologies, Inc.). All coding regions were codon-optimized for E. coli expression. DNA fragments were cleaved with BamHI-HF® and EcoRI-HF® (New England Biolabs) and subsequently ligated into pGex-2T vector. […]

GST-MLK2 SH3 [2] = assay: specificity ELISA, MLK2; assay type: binding, human; settings: biotinylated peptide ≈2 μM on NeutrAvidin; GST-SH3 0.15 μM, 1–1.5 h; anti-GST-HRP; triplicate (Fig. 8)
Procedure: as §1, §2

GST-MLK3 SH3 [3] = assay: specificity ELISA, MLK3; assay type: binding, human; settings: biotinylated peptide ≈2 μM on NeutrAvidin; GST-SH3 0.15 μM, 1–1.5 h; anti-GST-HRP; triplicate (Fig. 8)
Procedure: as §1, §2

GST-MLK4 SH3 [4] = assay: specificity ELISA, MLK4; assay type: binding, human; settings: biotinylated peptide ≈2 μM on NeutrAvidin; GST-SH3 0.15 μM, 1–1.5 h; anti-GST-HRP; triplicate (Fig. 8)
Procedure: as §1, §2

MLK3 SH3 domain Y52A = assay: binding to Y52A mutant of MLK3 SH3; parameters: species or system human; settings: data not shown
Description: Two plasmids, gifts from Dr. Gerardo Morfini, University of Illinois at Chicago, encoding a GST protein fused to either the WT or mutant Y52A of the SH3 domain of MLK3 (UniProt entry Q16584; aa 43–104), respectively, between BamHI and EcoRI sites, were transformed into the Escherichia coli strain Rosetta(DE3)pLysS. DNA fragments encoding the SH3 domain of MLK1 (UniProt entry P80192; aa 52–116), MLK2 (UniProt entry Q02779; aa 16–81), and MLK4 (UniProt entry Q5TCX8; aa 38–102) were commercially prepared as gBlocks® Gene Fragments (Integrated DNA Technologies, Inc.). All coding regions were codon-optimized for E. coli expression. DNA fragments were cleaved with BamHI-HF® and EcoRI-HF® (New England Biolabs) and subsequently ligated into pGex-2T vector. The resulting DNA constructs, pGex-MLK1 SH3, pGex-MLK2 SH3, and pGex-MLK4 SH3 (verified by sequencing) were transformed into E. coli strain BL21(DE3).

GST tag = assay: binding of MIP to GST tag; settings: ELISA
Procedure: After three washes with PBS containing 0.1% Tween 20 (PBST), retention of the SH3 domain fusion protein in wells was detected with an anti-GST antibody conjugated to horseradish peroxidase (HRP) (GE Healthcare; 45 min; 1:5000 in PBST). Following three washes with PBST, the chromogenic substrate solution 2,2-azinobis(3-ethylbenzthiazoline-6-sulfonic acid) (ABTS; Pierce); 10 ml of 50 mM sodium citrate, pH 4.0; and 100 μl of 3% H2O2 were added to the plate (100 μl/well). The absorbance was measured at 405 nm with a POLARstar OPTIMA microtiter plate reader (BMG Labtech).

SH3 domain of MLK3 = settings: cited from earlier work
Description: Mixed-lineage protein kinase 3 (MLK3) is widely expressed in a variety of normal and cancerous tissues, such as brain, lung, liver, heart, breast, kidney, pancreas, and skeletal muscle ([34][–][36]). MLK3, also known as MAP3K11, is a serine/threonine protein kinase involved in regulating the JNK, p38, and ERK pathways ([37][–][42]). It is composed of several modules: an SH3 domain, a kinase domain, tandem leucine zippers, a Cdc42/Rac interactive binding (CRIB) motif, several linker regions, and a proline-rich C-terminal tail ([39], [43]). According to the BioGRID interaction database ([44]), M ...

GST-MLK3 SH3 [5] = assay: phage ELISA of phage-displayed MIP and variants on GST-MLK3 SH3; assay type: binding, human; settings: original clone/MIP, anti-M13 mAb-HRP detection, experiments in duplicate, averaged
Procedure: (§3) Figure 1. […] The presence of virions in the supernatant was determined by coating the wells of the microtiter plate with an anti-M13 mAb (anti-M13 Ab). Virions, which were retained in the microtiter plate wells, were detected with anti-M13 mAb conjugated to HRP. […] See also Fig. S1.
Figure 2. […] The MIP sequence, NH2-[…]-COOH, was fused to the N terminus of the pIII capsid protein of bacteriophage M13 ([51]) to facilitate type 3 pentavalent display. Systematic alanine replacements in the peptide were generated by Kunkel mutagenesis ([11]); Ala-1 and Ala-14 were replaced with Val. […] The signal for binding of MIP (WT) to GST-MLK3 SH3 is set as 100%, and other values are normalized to it. […] See also Fig. S2.
Screens for peptide ligands were performed following a protocol published previously ([11]). […] After three rounds of affinity selection, individual phage clones were isolated, and their binding was evaluated via phage ELISA ([11]). […]
All constructs were generated via Kunkel mutagenesis ([11], [57], [58]) and facilitated type 3 (pentavalent) display. […] All constructs were verified by DNA sequencing, and phage clones were evaluated for their binding to the target (GST-MLK3 SH3) via phage ELISA ([11]). […]

GST fusion partner = assay: phage ELISA of phage-displayed MIP on GST fusion partner; assay type: binding; settings: duplicate (Fig. 1)
Procedure: as §3
Screens for peptide ligands were performed following a protocol published previously ([11]). The purified target protein, GST-MLK3 SH3-WT, was prebound to GSH magnetic beads (Pierce, catalogue number 88821), and nonspecific binding sites were blocked with phosphate-buffered saline (PBS; 137 mM NaCl, 3 mM KCl, 8 mM Na2HPO4, 1.5 mM KH2PO4) containing 3% (w/v) bovine serum albumin (BSA). […] After three rounds of affinity selection, individual phage clones were isolated, and their binding was evaluated via phage ELISA ([11]). Positive clones were then sequenced.

SEC = target: the molecule itself; assay: SEC
GST-MLK3 SH3(43–104) [6] = target: T1, GST-MLK3 SH3(43–104) (human, UniProt Q16584 43-104); assay: ELISA; settings: both partners purified
T1 construct: also called GST-MLK3 SH3-WT; SH3 WT
T1 sequence (looked up): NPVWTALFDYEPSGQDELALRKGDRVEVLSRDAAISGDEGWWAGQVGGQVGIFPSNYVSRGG

GST-MLK1 SH3 [7] = target: T2, GST-MLK1 SH3 (UniProt P80192 52-116); assay: ELISA; settings: both partners purified
T2 construct: also called SH3 domain of MLK1
T2 sequence (looked up): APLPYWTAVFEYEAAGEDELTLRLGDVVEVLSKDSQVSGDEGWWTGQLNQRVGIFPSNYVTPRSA

GST-MLK2 SH3 [8] = target: T3, GST-MLK2 SH3 (UniProt Q02779 16-81); assay: ELISA; settings: both partners purified
T3 construct: also called SH3 domain of MLK2
T3 sequence (looked up): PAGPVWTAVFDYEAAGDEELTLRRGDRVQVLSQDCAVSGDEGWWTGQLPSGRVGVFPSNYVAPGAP

GST-MLK4 SH3 [9] = target: T4, GST-MLK4 SH3 (UniProt Q5TCX8 38-102); assay: ELISA; settings: both partners purified
T4 construct: also called SH3 domain of MLK4
T4 sequence (looked up): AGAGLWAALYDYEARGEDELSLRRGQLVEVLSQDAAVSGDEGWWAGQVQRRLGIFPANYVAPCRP

GST-MLK3 SH3(43–104) [10] = target: T1, GST-MLK3 SH3(43–104); assay: ELISA; competition ELISA: GST-MLK3 SH3 (5 μg/ml) preincubated 1–1.5 h with ≈0.01–100 μM unlabeled competitor peptide, then 45 min on biotinylated MIP (≈2 μM) captured via NeutrAvidin; anti-GST-HRP detection; GST tag tested as a control; settings: both partners purified

## CC[C@H](C)[C@H](NC(=O)[C@H](C)N)C(=O)N[C@@H](CCCNC(=N)N)C(=O)N[C@H](C(=O)N[C@@H](CC(N)=O)C(=O)N1CCC[C@H]1C(=O)N[C@@H](CC(N)=O)C(=O)NCC(=O)N[C@H](C(=O)N[C@@H](Cc1c[nH]c2ccccc12)C(=O)N[C@@H](CO)C(=O)N[C@@H](CCCNC(=N)N)C(=O)N[C@@H](CCC(N)=O)C(=O)N[C@@H](C)C(=O)N[C@@H](CCC(=O)O)C(=O)N[C@H](C(=O)N[C@H](C(=O)N[C@@H](CCC(=O)O)C(=O)N[C@@H](CO)C(=O)O)C(C)C)[C@@H](C)O)[C@@H](C)O)[C@@H](C)CC [MIP]
GST-MLK1 SH3 [1]
  binding to MLK1 SH3: bound
GST-MLK2 SH3 [2]
  binding to MLK2 SH3: did not bind
GST-MLK3 SH3 [3]
  binding to MLK3 SH3: bound
GST-MLK4 SH3 [4]
  binding to MLK4 SH3: bound
MLK3 SH3 domain Y52A
  effect of SH3 mutation Y52A on peptide binding: disrupts binding
GST tag
  interaction with GST tag: no interactions

## HCV NS5A: hepatitis C virus nonstructural 5A protein
SH3 domain of MLK3
  interaction with SH3 domain of MLK3: interact with the SH3 domain of MLK3 via a PXXPXR motif

## NH2-AIRINPNGTWSRQAETVES-COOH [phage-displayed MIP, MIP fused to the N terminus of the pIII capsid protein of bacteriophage M13]
GST-MLK3 SH3 [5]
  binding to GST-MLK3 SH3 in phage ELISA: bind to the WT form of the MLK3 SH3 domain
GST fusion partner
  binding to GST fusion partner in phage ELISA: not the GST fusion partner

B1: MLK3 SH3(41–105)-MIP(1–13) fusion protein (other, human)
chain: YANPVWTALFDYEPSGQDELALRKGDRVEVLSRDAAISGDEGWWAGQVGGQVGIFPSNYVSRGGGAIRINPNGTWSRQ
notes: also called the WT construct
SEC
  binding result: binds

B2: biotinylated NS5A peptide ([…]-GGG-K-biotin) (peptide)
peptide: KKAPTPPPRRRRGGGK(Biotin)
notes: also called immobilized NS5A; source: synthetic peptide
GST-MLK3 SH3(43–104) [6]
  binding result: binds
GST-MLK1 SH3 [7]
  binding result: binds
GST-MLK2 SH3 [8]
  binding result: binds
GST-MLK4 SH3 [9]
  binding result: binds

B3: unlabeled MIP (synthetic) (peptide)
peptide: AIRINPNGTWSRQAETVES
notes: also called MIP(1–19); soluble MIP peptide; source: synthetic peptide
GST-MLK3 SH3(43–104) [6]
  IC50: 6.6 ± 1.6 µM
GST-MLK3 SH3(43–104) [10]
  IC50: 15.8 ± 0.4 µM
